Results published in patent US8252807B2, “Methods of inhibiting the interaction between S100 and the receptor for advanced glycation end-products” (Board of Regents, The University of Texas System, priority 2007, dated 2012).

Tests used:
Panc-1 cells = assay: Matrigel invasion assay, Panc-1; type: cell-based; details: 24 hours
Description: FIGS. 2A-2D show the effect of cromolyn on pancreatic cancer cell invasion. Panc-1 and BxPC-3 cells were plated in Bio-coat matrigel and control chambers and cultured in serum-free culture media. After 24 hours non-invaded cells in the upper chamber were removed, and cells that invaded onto the lower surface of the membrane were counted from five adjacent fields. […] Data are expressed as the percent invasion through the matrigel matrix and membrane relative to migration through the control membrane. Means and 95% confidence intervals from three independent experiments performed in triplicate are shown. Two-tailed two-sample (unpaired) Student's t-tests were used to determine P values.
Panc-1 and BxPC-3 cells were seeded in BIOCOAT matrigel invasion chambers and in control chambers without matrigel (Becton-Dickinson, Bedford, Mass.) according to the manufacturer's protocol. Panc-1 cells were seeded with S100P (100 nM) with or without cromolyn (100 μM), and BxPC-3 cells were seeded with or without cromolyn (1-100 μM). Briefly, 2.0×10^5 cells in 300 μL top solution (serum-free media) were added to each chamber and allowed to invade matrigel for 24 hours at 37° C. in a 5% CO2 atmosphere. The non-invading cells on the upper surface of membrane were removed from the chambers with a cotton swab, and the invading cells on the lower surface of the membrane were fixed and stained using a Diff-Quick stain kit (Becton Dickinson, Bedford, Mass.). After two washes with water, the chambers were allowed to air dry. The numbers of invading cells in five adjacent microscope fields per membrane were counted at 20× magnification to obtain the average number of cells per field. Data are expressed as the percent invasion through the matrigel matrix and membrane relative to the migration through the control membrane. The assays were performed three times.

[1] = test system: S100s A1, B, A12, and A13; details: previously found; cited from earlier work
BxPC-3 cells = assay: BxPC-3 cell viability, 72 hours; type: cell-based
Description: BxPC-3 cells were plated at 1.0×10^3 cells/well and treated with 0 μM, 1 μM, 10 μM, and 100 μM of cromolyn or C5 alone or in combination with gemcitabine 1 μM and cell viability was analyzed after 72 hours. Two-tailed two-sample (unpaired) Student's t-tests were used to determine P values. […] BxPC-3 cells were plated at 1.0×10^3 cells/well and treated with either 100 μM of cromolyn or 1 μM C5 alone or in combination with gemcitabine (1 μM) and cell viability was analyzed after 72 hours.

[2] = test system: NFκB activity of BxPC-3 cells transplanted orthotopically; assay: NFκB promoter activity in vivo, orthotopic BxPC-3 tumors; design: species or system mice
Description: (§1) FIGS. 3A, 3B, and 3C show the effect of cromolyn on S100P stimulated NFκB promoter activity in pancreatic cancer cells in vitro and in vivo. Panc-1 and BxPC-3 pancreatic cancer cell lines stably expressing an NFκB luciferase reporter were examined for the effects of S100P and cromolyn. […] Means and 95% confidence intervals are shown for three independent experiments performed in triplicate. *, P=0.022, †, P<0.001, and ‡, P<0.001 versus control; #, P=0.005 versus 100 nM S100P alone. […] Means and 95% confidence intervals are shown for three independent experiments performed in triplicate. *, P=0.003, †, P<0.001 versus control. […] After 1 week, tumor growth was assessed and NFκB activity was analyzed using an IVIS system (Xenogen Corp., Alameda, Calif.) after injecting mice with D-luciferin (150 mg per kg body weight) (0 time point). The mice were treated with cromolyn (5 mg per kg body weight by intraperitoneal injection), and NFκB luciferase activity was analyzed again at 24 and 48 hours. *, P=0.005 versus control. Means and 95% confidence intervals are shown for two independent experiments (n=4 mice per group). Two-tailed two-sample (unpaired for in vitro and paired for in vivo studies) Student's t-tests were used to determine P values.
To measure NFκB promoter activity in vivo, BxPC-3 cells (50,000/50 μL) stably expressing a Lenti-NFkB-luc reporter were transplanted orthotopically into the pancreas of 4-week-old male CB 17 scid mice (n=4 mice per experiment). After 1 week mice were injected with D-luciferin (150 mg per kg body weight, i.p.), and basal NFκB activity was determined using the IVIS system. Subsequently, mice were injected with cromolyn (5 mg per kg body weight, i.p.), and NFκB luciferase activity was re-analyzed after 24 and 48 hours. These experiments were performed three times.

MPanc-96 cells = assay: MPanc-96 cell apoptosis by flow cytometry, 72 hours; type: cell-based, human; details: 100 and 1000 nM, with or without gemcitabine 10 μM
Description: FIG. 11 compares the effects of cromolyn and C5 alone and in combination with gemcitabine on MPanc-96 cell apoptosis. MPanc-96 cells were treated with cromolyn or C5 (100 and 1000 nM) with (+) or without (−) gemcitabine (10 μM). Apoptosis was analyzed after 72 hours by flow cytometry.

[3] = test system: NFκB promoter activity in Panc-1 cells; assay: Luciferase assay for NFκB activity, Panc-1; type: cell-based
Description: as §1
To study pancreatic cancer cell NFκB activity, a lentivirus NFκB luciferase reporter gene construct was developed. The NFκB luciferase reporter gene was excised and isolated from the pNF-κB-Luc Vector (Clonetec, Mountain View, Calif.) and cloned into the lentiviral vector FG9 (Gift from Dr. Xiao-Feng Qin, Dept. of Immunology, M.D. Anderson Cancer Center replacing the CMV/LTR and UBiC promoters, to form Lenti-NFκB-Luc. Lentiviral NFκB vector were co-transfected with packaging constructs pRSVREV, pMDLg/pRRE, and the VSV-G expression plasmid pHCMVG, and lentivirus was produced in 293T cells by the calcium transfection method, as previously described in Qin, et al., Inhibiting HIV-1 infection in human T cells by lentiviral-mediated delivery of small interfering RNA against CCR5; Proc. Natl. Acad. Sci. U.S.A. 2003 Jan. 7; 100(1):183-8. […] Functional validation of NFκB reporter activity was conducted in vitro using TNF-α (20 ng/mL, Sigma, St. Louis, Mo.) as a positive control.
BxPC-3 and Panc-1 cells stably expressing a Lenti-NFkB-luc reporter construct were treated with S100P, cromolyn, or the combination for 5 hours. D-luciferin (150 μg/mL) was added to the cells, and luciferase activity was measured using an IVIS bioluminescence system (Xenogen Co. Alameda, Calif.). Each experiment was conducted three times in triplicate.

S100B with RAGE = S100B with RAGE (Homo sapiens, UniProt P04271); assay: S100B binding with RAGE ELISA (sRAGE coated plate)
S100B with RAGE, sequence (P04271 whole entry, species assumed): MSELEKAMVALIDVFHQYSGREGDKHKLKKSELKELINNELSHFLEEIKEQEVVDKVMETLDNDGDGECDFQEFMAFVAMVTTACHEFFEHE
Source text: After removing un-bound S100B by washing with detergent, bound S100B and RAGE complex was quantified by adding HRP labeled antibody against S100B.

O=C(O)c1cc(=O)c2c(OCC(O)COc3cccc4oc(C(=O)O)cc(=O)c34)cccc2o1 [cromolyn, disodium 1,3-bis[(2′-carboxylatochromon-5′-yl)oxy]-2-hydroxypropane]
Panc-1 cells invaded, difference S100P versus S100P+cromolyn (Panc-1 cells): 48.6%
Panc-1 cells invaded, mean (Panc-1 cells; S100P 100 nM + cromolyn 100 μM): 9.4%
Panc-1 basal cell invasion (Panc-1 cells; no S100P): did not reduce basal cell invasion
binding to S100 proteins [1]: bind
BxPC-3 cell viability (BxPC-3 cells; 1-100 μM, alone or with gemcitabine 1 μM): inhibit BxPC-3 cell viability
concentration giving the same level of cell reduction in combination with gemcitabine (BxPC-3 cells; with gemcitabine 1 μM): 100 µM
NFκB luciferase activity in vivo, mean ([2]; 24 h after single dose 5 mg per kg i.p., 0 h mean=9.9×10^6): 1.3×10^6 photons/sec
reduction of basal NFκB activity in vivo ([2]; 24 hours after single dose 5 mg per kg i.p.): at least 80%
NFκB activity in vivo at 48 hours ([2]; 48 hours after single dose 5 mg per kg i.p.): returned to control levels
NFκB luciferase activity in vivo, difference 0 h versus 24 h ([2]; single dose 5 mg per kg i.p.): 8.6×10^6 photons/sec
MPanc-96 cell viability (MPanc-96 cells): inhibit MPanc-96 cell viability
NFκB promoter activity in Panc-1 cells, mean ([3]; S100P 100 nM + cromolyn 100 μM, 5 hours, S100P alone mean=14460): 7360 photons/sec
NFκB promoter activity in Panc-1 cells, difference S100P alone versus combination with cromolyn ([3]; S100P 100 nM, cromolyn 100 μM): 7100 photons/sec
basal NFκB activity in Panc-1 cells ([3]; cromolyn 100 μM, no S100P, 5 hours): no effect
interaction of S100B with RAGE (S100B with RAGE): inhibit the interaction of S100B with RAGE
